In this experiment the target is Substance-P receptor (Homo sapiens, UniProt P25103).

pKi: −log10 of the molar value. Several values for one entry are separate records, joined by “and”; a condition that tells them apart may be missing. Equal values may be shown once.

Chain of Substance-P receptor (P25103 whole entry): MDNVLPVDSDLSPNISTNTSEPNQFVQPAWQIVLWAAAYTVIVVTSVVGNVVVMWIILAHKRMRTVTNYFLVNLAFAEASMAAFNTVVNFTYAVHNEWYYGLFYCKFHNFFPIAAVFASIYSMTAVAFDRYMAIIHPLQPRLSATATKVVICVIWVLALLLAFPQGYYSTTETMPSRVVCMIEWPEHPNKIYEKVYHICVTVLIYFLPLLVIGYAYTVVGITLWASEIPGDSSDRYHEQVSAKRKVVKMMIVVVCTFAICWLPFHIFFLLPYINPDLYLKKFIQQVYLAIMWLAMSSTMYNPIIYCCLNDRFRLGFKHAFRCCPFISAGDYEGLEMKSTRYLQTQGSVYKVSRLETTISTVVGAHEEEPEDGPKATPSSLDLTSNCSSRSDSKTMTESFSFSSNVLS

On to `CN(C[C@@H](CCN1CCC(c2ccccc2[S+](C)[O-])CC1)c1ccc(Cl)c(Cl)c1)C(=O)c1cc(C#N)cc2ccccc12` (stereo partly specified), for which the pKi (as a rule, the Ki on a negative log10 scale, so that one unit is a factor of ten) was 9.21 and 9.92.

These data come from BindingDB's records for PubMed 11408556 (Astrazeneca Pharmaceuticals, 2001).
